Results as given in patent US9993488B2, “Dry powder formulations for inhalation” (OtiTopic Inc., priority 2014, dated 2018).
Values after ≈ are worked out from the molar mass of the structure shown. Like-named read-outs stand apart in the source and are kept apart here. Each block holds one molecule with its values, some of them ahead of it.

Columns and labels:
respiratory system = assay: Irritation / tolerability on inhalation; type: in vivo
Description: In addition, particles described herein can be mixed and/or coated with various pharmaceutically acceptable excipients. Excipients can be included in order to improve aerodynamic performance of the active drug, to improve bioavailability, increase stability, to modulate pH, to provide sustained release properties, to provide taste-masking of an irritating drug and/or to improve pharmacokinetic performance. In one embodiment, a dry powder comprises an amount of excipient effective to provide taste-masking of an irritating drug. In terms of suitable formulations for inhalation, not only is particle size important in order to reach a desired region of the respiratory system, but the formulation must be acceptable to patients. […] Consequently, it became necessary to find a suitable excipient in order to mask this property of aspirin.
Aspirin alone may be too irritating and evoke a choking response (e.g., coughing, bronchospasms) when inhaled. […] For example, symptoms of headache and nasal congestion may be alleviated within about 10 seconds, about 15 seconds, about 20 seconds, about 30 seconds, or within about 45 seconds.

[1] = Solubility of aspirin in anti-solvents / dispersion media; type: physicochemical
Method: After considering a number of factors in the end it was determined that only n-heptane and toluene fulfilled all the requirements, and therefore these were selected for further evaluation. Suspensions of aspirin at 5% w/w were prepared with the various anti-solvents, by charging the required amount of anti-solvent, charging the required amount of aspirin, and then stirring until a homogeneous suspension was obtained. The suspensions were qualitatively evaluated at room temperature and then filtered using a 0.45 μm membrane, which was then placed in an oven and dried at 60° C. until the solvent had completely evaporated. A quantitative analysis was performed on the residue that remained in the membrane by weighing the membrane before and after the test.
5% w/w DSPC was used as it was found from previous work to mitigate irritation when inhaled. Additionally, soy lecithin was also used in the concentration of 0.1% w/w. As aspirin is insoluble in n-hexane, it was selected as a dispersion media for the micronized particles. Also, it has boiling point of 70° C. which is much below the melting point of aspirin (˜135° C.) and therefore, an inlet temperature of 85° C. should remove solvent without affecting the aspirin particles.

[2] = cited from earlier work
[3] = test system: platelet aggregation, platelet thromboxane production, urinary 2,3-dinor-TXB2 excretion; conditions: cited from earlier work
vascular events = conditions: cited from earlier work
[4] = test system: major gastrointestinal and extracranial bleeds; conditions: oral aspirin; cited from earlier work
[5] = Solubility of aspirin in solvents; type: physicochemical; conditions: organic solvent or mixture
Description: The solubility of aspirin in a number of solvents was first evaluated prior to initiating controlled crystallization by addition of a suitable anti-solvent.

[6] = Gravimetric emitted dose through DPI devices (TwinCaps, RS01) with NGI; type: physicochemical; conditions: 40 L/min, fill weight 60.00 mg
Method: The aerodynamic particle size distributions (APSDs) of the ASA powders were determined by evaluating emitted doses gravimetrically through two DPI devices, the TwinCaps and the RS01, using a Next Generation Impactor (NGI). Flow rates of approximately 40 and 100 L/min provided the 4 kPa pressure drop across the TwinCaps and RS01 devices, respectively, as stipulated by USP <601>, Inhalation and Nasal Drug Products: Aerosol, Sprays, and Powders—Performance Quality Tests.
The TwinCaps DPI was tested (2 actuations) using various loaded doses. Testing was performed to determine the approximate emitted dose from the device based on weight. Each test was performed using a freshly prepared NGI.
The Plastiape RS01 monodose DPI inhaler was also tested using various loaded doses in Size 3 HPMC capsules to determine approximate emitted dose based on the weight.

[7] = Pharmacokinetics of orally administered aspirin (literature); conditions: extrapolated from linear pharmacokinetics over 30-400 mg
[8] = 5% w/w suspension, room temperature, 0.45 μm filtration
[9] = after oral administration of ASA
[10] = following administration of ASA

SMILES: CC(=O)Oc1ccccc1C(=O)O [aspirin, acetylsalicylic acid]
- irritation / tolerability when inhaled (respiratory system): quite irritating
- Behavior towards n-heptane [1, 8]: phobic behavior
- Solubility in toluene [1, 8]: partially soluble
- Solubility in n-hexane ([1]; n-hexane): insoluble
- elimination half-life [2, 9]: 0.25 to 0.333 h
- time to peak plasma levels [2, 9]: about 20 minutes
- fraction of oral dose bioavailable ([2]; oral, first pass effect): one to two-thirds
- fraction of oral dosage lost or inactivated by first pass effect ([2]; oral, gut and liver): approximately ⅔
- inhibition of indices of platelet activation ([3]; 40 mg ASA versus 100 mg, healthy human subjects): significantly less effective
- inhibition of platelet aggregation, thromboxane production, urinary 2,3-dinor-TXB2 excretion ([3]; plain versus enteric-coated 100 mg ASA): equally effective
- vascular events prevented (vascular events; Dutch TIA Study, any dose above 30 mg daily): 13%
- risk of stroke or death (vascular events; SALT, 75 mg/day, patients with cerebrovascular ischemic events): significantly reduces
- increase of major gastrointestinal and extracranial bleeds [4]: over 50%
- solubility ([5]; DMF, 23 °C): 500 mg/mL (≈ 2780 mM)
- solubility ([5]; PEG-200, 23 °C): 77 mg/mL (≈ 427 mM)
- solubility ([5]; THF, 3 °C): 250 mg/mL (≈ 1390 mM)
- solubility ([5]; THF, 23 °C): 500 mg/mL (≈ 2780 mM)
- solubility ([5]; acetone, 3 °C): 143 mg/mL (≈ 794 mM)
- solubility ([5]; acetone, 23 °C): 200 mg/mL (≈ 1110 mM)
- solubility ([5]; ethanol, EtOH, 3 °C): 63 mg/mL (≈ 350 mM)
- solubility ([5]; ethanol, EtOH, 23 °C): 125 mg/mL (≈ 694 mM)
- solubility ([5]; methanol, MeOH, 3 °C): 133 mg/mL (≈ 738 mM)
- solubility ([5]; methanol, MeOH, 23 °C): 167 mg/mL (≈ 927 mM)

- % Emitted (based on fill weight) [6]: 94.5%
- Total Emitted Dose [6]: 56.73 mg
SMILES: OC[C@H]1O[C@@H](O[C@H]2[C@H](O)[C@@H](O)C(O)O[C@@H]2CO)[C@H](O)[C@@H](O)[C@H]1O (stereo partly shown) [Lactose, lactose]

- expected peak circulating plasma level [7]: ~10 µg/mL
SMILES: O=C(O)c1ccccc1O [salicylic acid]
- elimination half-life [2, 10]: 2 to 3 h
- period of increasing plasma levels [2, 10]: about 45 minutes
